The target in this assay is 5-hydroxytryptamine receptor 6 (Homo sapiens, UniProt P50406). The assay can be described thus: Ability to displace [3H]LSD from human 5-hydroxytryptamine 6 receptor transiently expressed in COS-7 cells. The format is cell-based.

This note sets out measurements from ChEMBL document CHEMBL1147522, “1,2,3,4-tetrahydrocarbazoles as 5-HT6 serotonin receptor ligands” (Bioorg Med Chem Lett, 2004).

In general, Ki refers to a dissociation constant, usually derived from enzyme kinetics or from competition with a known ligand. Read a high Ki as a looser hold on the target.

Each structure is given as a SMILES string.

5-hydroxytryptamine receptor 6, sequence (P50406 whole entry): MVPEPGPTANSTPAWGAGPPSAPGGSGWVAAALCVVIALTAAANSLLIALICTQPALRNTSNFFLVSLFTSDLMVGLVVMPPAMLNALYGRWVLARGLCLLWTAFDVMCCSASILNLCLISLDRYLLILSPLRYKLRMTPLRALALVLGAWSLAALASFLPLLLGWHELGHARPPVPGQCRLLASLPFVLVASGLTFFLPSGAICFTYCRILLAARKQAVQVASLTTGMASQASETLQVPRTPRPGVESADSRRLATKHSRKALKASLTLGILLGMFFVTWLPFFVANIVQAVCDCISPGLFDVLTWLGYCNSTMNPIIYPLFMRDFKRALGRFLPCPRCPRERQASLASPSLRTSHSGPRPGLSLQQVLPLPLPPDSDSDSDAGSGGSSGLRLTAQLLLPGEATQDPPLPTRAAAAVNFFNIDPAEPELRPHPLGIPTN

Take `COc1ccc2c(c1)c1c(n2Cc2ccc(N)cc2)CCCC1`: the Ki stood at 6000 nM. Then `COc1ccc(S(=O)(=O)n2c3c(c4cc(OC)ccc42)C(CN(C)C)CCC3)cc1` (stereo unspecified), with 47 nM; and `CN(C)CC1CCCc2c1c1ccccc1n2Cc1ccccc1` (stereo unspecified), with 64 nM; and `COc1ccc(OC)c(S(=O)(=O)n2c3c(c4cc(OC)ccc42)C(CN(C)C)CCC3)c1` (stereo unspecified), with 0.3 nM.

In turn, `COc1ccc2c(c1)c1c(n2S(=O)(=O)c2ccc(I)cc2)CCCC1CN(C)C` (stereo unspecified) came in with a Ki of 2.4 nM. The value for `COc1ccc2c(c1)c1c(n2C(=O)c2ccc(N)cc2)CCCC1` was 6000 nM; that for `COc1ccc2c(c1)c1c(n2S(=O)(=O)c2cccc3cccnc23)CCCC1CN(C)C` (stereo unspecified) was 7.6 nM; that for `COc1ccc2c(c1)c1c(n2S(=O)(=O)c2ccc(Cl)cc2)CCCC1CN(C)C` (stereo unspecified) was 5 nM. Then `Nc1ccc(S(=O)(=O)n2c3ccccc3c3ccccc32)cc1`, with 49 nM; and `COc1ccc2c(c1)c1c(n2S(=O)(=O)c2ccccc2)CCCC1CN(C)C` (stereo unspecified), with 2.3 nM. The value for `COc1ccc2c(c1)c1c(n2S(=O)(=O)Cc2ccccc2)CCCC1CN(C)C` (stereo unspecified) was 200 nM; that for `COc1ccc2c(c1)c1c(n2S(=O)(=O)c2ccc3ccccc3c2)CCCC1CN(C)C` (stereo unspecified) was 5.1 nM; that for `COc1ccc2c(c1)c1c(n2S(=O)(=O)c2cccc3ccccc23)CCCC1CN(C)C` (stereo unspecified) was 14 nM. Turning to `COc1ccc2c(c1)c1c(n2S(=O)(=O)c2ccc(N)cc2)CCCC1CN(C)C` (stereo unspecified), the Ki was 2 nM. `COc1ccc2c(c1)c1c(n2S(=O)(=O)c2ccc(N)cc2)CCCC1` returned a Ki of 29 nM. The value for `COc1ccc2c(c1)c1c(n2S(=O)(=O)c2ccc(C)cc2)CCCC1CN(C)C` (stereo unspecified) was 9.4 nM.
